Our source for the activity coefficient values is the NIST ThermoML archive (doi:10.1021/je300692s).

This data set can be described thus: activity coefficient (dimensionless); of the first substance listed, at infinite dilution; xn = mol fraction of the nth substance listed. Conditions: 101 kPa, Liquid, Chromatography, x1 = 0.

± gives the expanded uncertainty stated by the source.

On to `C1COCCO1` [1,4-dioxane] + CCCCCCCCCC[N+]1(C)CCCC1.O=S(=O)([N-]S(=O)(=O)C(F)(F)F)C(F)(F)F, for which the activity coefficient (322.6 K) came to 0.38 ± 0.05, the activity coefficient (332.5 K) came out at 0.35 ± 0.04 and the activity coefficient (342.8 K) is 0.38 ± 0.05.
`CCCCCCCCC` [nonane] + CCCCCC[N+]1(C)CCCC1.O=S(=O)([N-]S(=O)(=O)C(F)(F)F)C(F)(F)F: the activity coefficient (322.9 K) was 21.1 ± 2.2, the activity coefficient (333 K) came to 18.2 ± 1.9 and the activity coefficient (343.1 K) was determined as 18.5 ± 1.9.
Taken in the same sequence, the figures for `C1CCCCCC1` [cycloheptane] + CCCCCC[N+]1(C)CCCC1.O=S(=O)([N-]S(=O)(=O)C(F)(F)F)C(F)(F)F were 14 ± 1.5, 19 ± 2 and 25.1 ± 2.6.
In the case of `CO` [methanol] + CCCCCC[N+]1(C)CCCC1.O=S(=O)([N-]S(=O)(=O)C(F)(F)F)C(F)(F)F, the activity coefficient runs as follows: (322.9 K) 0.94 ± 0.1; (333 K) 1.77 ± 0.18; (343.1 K) 0.95 ± 0.1.
For `CCO` [ethanol] + CCCCCCCCCC[N+]1(C)CCCC1.O=S(=O)([N-]S(=O)(=O)C(F)(F)F)C(F)(F)F, the activity coefficient stood at 1.46 ± 0.15 (322.6 K), 1.34 ± 0.14 (332.5 K) and 1.22 ± 0.13 (342.8 K).
For the compound `CCCCCCCCCCC` [undecane] + CCCCCCCC[N+]1(C)CCCC1.O=S(=O)([N-]S(=O)(=O)C(F)(F)F)C(F)(F)F, the activity coefficient came to 16.8 ± 1.8 (323 K), 15.6 ± 1.6 (333 K) and 14.6 ± 1.5 (343.1 K).
Taken in the same sequence, the figures for `CCc1ccccc1` [ethylbenzene] + CCCCCCCC[N+]1(C)CCCC1.O=S(=O)([N-]S(=O)(=O)C(F)(F)F)C(F)(F)F were 1.03 ± 0.1, 0.98 ± 0.1 and 1.04 ± 0.11.
Take `Cc1cccc(C)c1` [1,3-dimethylbenzene] + CCCCCCCCCC[N+]1(C)CCCC1.O=S(=O)([N-]S(=O)(=O)C(F)(F)F)C(F)(F)F: the activity coefficient worked out at 0.99 ± 0.1 (322.6 K), 1 ± 0.1 (332.5 K) and 1.03 ± 0.1 (342.8 K).
Taken in the same sequence, the figures for `C1CCCCC1` [cyclohexane] + CCCCCCCCCC[N+]1(C)CCCC1.O=S(=O)([N-]S(=O)(=O)C(F)(F)F)C(F)(F)F were 2.81 ± 0.3, 2.71 ± 0.28 and 2.62 ± 0.28.
Taken in the same sequence, the figures for `CCC[N+](=O)[O-]` [1-nitropropane] + CCCCCCCCCC[N+]1(C)CCCC1.O=S(=O)([N-]S(=O)(=O)C(F)(F)F)C(F)(F)F were 0.62 ± 0.07, 0.61 ± 0.07 and 0.6 ± 0.06.
Taken in the same sequence, the figures for `CO` [methanol] + CCCCCCCCCC[N+]1(C)CCCC1.O=S(=O)([N-]S(=O)(=O)C(F)(F)F)C(F)(F)F were 1.61 ± 0.17, 1.32 ± 0.14 and 1.36 ± 0.14.
`C=CCCCC` [hex-1-ene] + CCCCCC[N+]1(C)CCCC1.O=S(=O)([N-]S(=O)(=O)C(F)(F)F)C(F)(F)F: the activity coefficient runs as follows: (322.9 K) 4.56 ± 0.48; (333 K) 4.63 ± 0.49; (343.1 K) 4.44 ± 0.47.
For `CCCCCCCCCC` [decane] + CCCCCCCCCC[N+]1(C)CCCC1.O=S(=O)([N-]S(=O)(=O)C(F)(F)F)C(F)(F)F, the activity coefficient by setting is: (322.6 K) 9.42 ± 0.99; (332.5 K) 9.05 ± 0.95; (342.8 K) 8.7 ± 0.91.
`CC1CCCC1` [methylcyclopentane] + CCCCCCCC[N+]1(C)CCCC1.O=S(=O)([N-]S(=O)(=O)C(F)(F)F)C(F)(F)F: the activity coefficient by setting is: (323 K) 3.13 ± 0.33; (333 K) 3.36 ± 0.35; (343.1 K) 2.84 ± 0.3.
Consider `CCO` [ethanol] + CCCCCC[N+]1(C)CCCC1.O=S(=O)([N-]S(=O)(=O)C(F)(F)F)C(F)(F)F, for which the activity coefficient (322.9 K) amounted to 1.41 ± 0.15, the activity coefficient (333 K) turned out to be 1.4 ± 0.14 and the activity coefficient (343.1 K) amounted to 1.31 ± 0.13.
`C1COCCO1` [1,4-dioxane] + CCCCCC[N+]1(C)CCCC1.O=S(=O)([N-]S(=O)(=O)C(F)(F)F)C(F)(F)F: the activity coefficient is, setting by setting: (322.9 K) 0.58 ± 0.06; (333 K) 0.42 ± 0.05; (343.1 K) 0.44 ± 0.05.
With `Cc1ccc(C)cc1` [1,4-dimethylbenzene] + CCCCCCCC[N+]1(C)CCCC1.O=S(=O)([N-]S(=O)(=O)C(F)(F)F)C(F)(F)F, the activity coefficient (323 K) was 1.01 ± 0.1, the activity coefficient (333 K) is 0.99 ± 0.1 and the activity coefficient (343.1 K) is 1.05 ± 0.11.
As for `CCC[N+](=O)[O-]` [1-nitropropane] + CCCCCC[N+]1(C)CCCC1.O=S(=O)([N-]S(=O)(=O)C(F)(F)F)C(F)(F)F, the activity coefficient runs as follows: (322.9 K) 0.66 ± 0.07; (333 K) 0.66 ± 0.07; (343.1 K) 0.65 ± 0.07.
Regarding `C1CCCCCC1` [cycloheptane] + CCCCCCCCCC[N+]1(C)CCCC1.O=S(=O)([N-]S(=O)(=O)C(F)(F)F)C(F)(F)F, the activity coefficient by setting is: (322.6 K) 7 ± 0.74; (332.5 K) 9.72 ± 1; (342.8 K) 13.3 ± 1.4.
`c1ccncc1` [pyridine] + CCCCCCCCCC[N+]1(C)CCCC1.O=S(=O)([N-]S(=O)(=O)C(F)(F)F)C(F)(F)F: the activity coefficient is 0.47 ± 0.05 (322.6 K), 0.47 ± 0.05 (332.5 K) and 0.47 ± 0.05 (342.8 K).
`CC(C)CO` [2-methyl-1-propanol] + CCCCCCCCCC[N+]1(C)CCCC1.O=S(=O)([N-]S(=O)(=O)C(F)(F)F)C(F)(F)F: the activity coefficient (322.6 K) is 1.7 ± 0.18, the activity coefficient (332.5 K) was determined as 1.53 ± 0.16 and the activity coefficient (342.8 K) was found to be 1.39 ± 0.14.
For the compound `CCCO` [propan-1-ol] + CCCCCCCC[N+]1(C)CCCC1.O=S(=O)([N-]S(=O)(=O)C(F)(F)F)C(F)(F)F, the activity coefficient (323 K) was found to be 1.49 ± 0.15, the activity coefficient (333 K) was 1.29 ± 0.13 and the activity coefficient (343.1 K) was determined as 1.14 ± 0.12.
On to `ClCCl` [dichloromethane] + CCCCCC[N+]1(C)CCCC1.O=S(=O)([N-]S(=O)(=O)C(F)(F)F)C(F)(F)F, for which the activity coefficient by setting is: (322.9 K) 0.31 ± 0.04; (333 K) 0.36 ± 0.04; (343.1 K) 0.35 ± 0.04.
In the case of `C1CCCCC1` [cyclohexane] + CCCCCC[N+]1(C)CCCC1.O=S(=O)([N-]S(=O)(=O)C(F)(F)F)C(F)(F)F, the activity coefficient stood at 5.16 ± 0.54 (322.9 K), 4.64 ± 0.49 (333 K) and 4.67 ± 0.49 (343.1 K).
With `CCC(=O)CC` [pentan-3-one] + CCCCCC[N+]1(C)CCCC1.O=S(=O)([N-]S(=O)(=O)C(F)(F)F)C(F)(F)F, the activity coefficient runs as follows: (322.9 K) 0.47 ± 0.05; (333 K) 0.6 ± 0.06; (343.1 K) 0.62 ± 0.07.
As to `CCC(C)=O` [butanone] + CCCCCCCC[N+]1(C)CCCC1.O=S(=O)([N-]S(=O)(=O)C(F)(F)F)C(F)(F)F, the activity coefficient stood at 0.36 ± 0.04 (323 K), 0.34 ± 0.04 (333 K) and 0.31 ± 0.04 (343.1 K).
In the case of `CCC(C)CC` [3-methylpentane] + CCCCCCCC[N+]1(C)CCCC1.O=S(=O)([N-]S(=O)(=O)C(F)(F)F)C(F)(F)F, the activity coefficient is, setting by setting: (323 K) 4.61 ± 0.48; (333 K) 4.52 ± 0.47; (343.1 K) 4.08 ± 0.43.
`CCCCO` [butan-1-ol] + CCCCCC[N+]1(C)CCCC1.O=S(=O)([N-]S(=O)(=O)C(F)(F)F)C(F)(F)F: the activity coefficient (322.9 K) stood at 2.28 ± 0.24, the activity coefficient (333 K) was found to be 2.86 ± 0.3 and the activity coefficient (343.1 K) came out at 2.04 ± 0.21.
